Experimental data from US20130145496A1, “FLAVIN ENZYME HAVING FLAVONOL 8-HYDROXYLASE ACTIVITY AND USE THEREOF” (SUNTORY HOLDINGS LIMITED, priority 2010, published 2013).

System: flavonol 8-hydroxylase (MFB088 crude enzyme)
Experiment: Hydroxylase activity of MFB088 crude enzyme on flavonoid substrates (UPLC-TOF MS, ion trap MS/MS)
Format: biochemical, Lotus japonicus
Conditions: 0.048 nmol substrate, FAD, NADPH, pH 7.0, 30° C., 15 minutes; product detected by UPLC-TOF MS / ion trap MS/MS; not detected in negative control
Procedure: The yeast cells were centrifuged and recovered, and then lysed using glass beads. The lysate was centrifuged at 8000×g for 10 minutes. The supernatant was recovered and further centrifuged at 15000×g for 10 minutes to give the crude enzyme fraction of the protein encoded by MFB088 (hereinafter referred to as the MFB088 crude enzyme).
MFB088 crude enzyme solution, 2 μl (containing 2.5 μg of proteins); 0.1 M KH2PO4/K2HPO4 solution (containing 0.4% ascorbic acid: pH 7.0), 88 μl; 0.048 nmol eriodictyol/5 […] of H2O; 0.001 nmol FAD and 0.48 nmol NADPH/5 μl of H2O.
NADPH was added to start the reaction. After the reaction proceeded at 30° C. for 15 minutes, 10 μl of glacial acetic acid was added to stop the reaction. An […] was further added to extract the phenol compound twice (the added […]: 70 μl and 50 μl). The organic layer was recovered and used as a sample (hereinafter referred to as “MFB088 crude enzyme reaction product”). The components were analyzed by UPLC-TOF MS and ion trap MS/MS.
For analysis of the MFB088 crude enzyme reaction product, Waters Acquity UPLC™ system (Waters Corporation) equipped with time-of-flight mass spectrometer LCT Premier (Waters Corporation, Massachusetts, USA) was used. The analysis was performed using an ACQUITY UPLC™ BEH C18 column (particle diameter of 1.7 μm, column size of 2.1 mm I.D.×100 mm, Waters Corporation) under the conditions of flow rate of 0.3 ml/min and column temperature at 40° C. Using solvent A (0.1% formic acid-acetonitrile) and solvent B (0.1% formic acid aqueous solution), the reaction product was eluted by linear gradient from 70% B in 0 minute to 70% A in 20 minutes. The reaction product was detected by the time-of-flight mass spectrometer in the cation detection mode set forth below: capillary voltage of 2500 V, sample cone of 100 V, desolvation temperature at 250° C., source temperature at 120° C., and nitrogen gas flow of 6001/hour.
The components of the MFB088 crude enzyme reaction product was analyzed by ion trap MS/MS. High performance liquid chromatography (HPLC) system Agilent 1200 series (Agilent Technologies, California, USA) equipped with ion trap mass spectrometer LTQ XL (Thermo Fisher Scientific, Massachusetts, USA) was used for the MS/MS analysis. HPLC was performed using a TSKgel ODS-80™ column (particle diameter of 5 μm, column size of 4.6 mm I.D.×150 mm, TOSOH, Japan) under the conditions of flow rate of 0.5 ml/min and column temperature at 40° C. Using solvent A (0.1% formic acid-acetonitrile) and solvent B (0.1% formic acid aqueous solution), the reaction product was eluted by linear gradient from 70% B in 0 minute to 85% A in 30 minutes. The reaction product was ionized by electrospray ionization method and cations were detected under the following conditions: spray voltage of 4.0 kV, capillary temperature at 300° C., nitrogen sheath of 40 units, and auxiliary gas of 15 units. In the MS/MS analysis of the reaction product [M+H]+, collision-induced dissociation (CID) was performed under the conditions below to detect the fragment peak: normalized collision energy of 35, activation Q of 0.25 and activation time for 30 ms.
MFB088 crude enzyme solution, 2 μl (containing 2.5 μg of proteins); 0.1 M KH2PO4/K2HPO4 solution (containing 0.4% ascorbic acid: pH 7.0), 88 μl; 0.048 nmoleriodictyol/5 μl of H2O; 0.001 nmol FAD and 0.48 nmol NADPH/5 μl of H2O.
MFB088 crude enzyme solution, 2 μl (containing 2.5 μg of protein); 0.1 M KH2PO4/K2HPO4 solution (containing 0.4% ascorbic acid: pH 7.0), 88 μl; 0.048 nmol luteolin/5 μl of H2O; 0.001 nmol FAD and 0.48 nmol NADPH/5 μl of H2O.
The reactivity requiring kaempferol and apigenin as substrates was analyzed. The reaction product was recovered in a manner similar to EXAMPLES described above and the components were analyzed by UPLC-TOF MS.
For `O=c1cc(-c2ccc(O)cc2)oc2cc(O)cc(O)c12` [apigenin], the “hydroxylation of substrate by the MFB088 crude enzyme” value (“hydroxylation of substrate” below) was “hydroxyl group is attached to apigenin”.
In the case of `O=C1c2c(O)cc(O)cc2O[C@H](c2ccc(O)c(O)c2)[C@H]1O` [dihydroquercetin], the “hydroxylation of substrate” value is reported as “two hydroxyl groups were attached”.
With `O=C1C[C@@H](c2ccc(O)c(O)c2)Oc2cc(O)cc(O)c21` [eriodictyol] the “hydroxylation of substrate” value was “hydroxyl-substituted”.
With `O=c1c(O)c(-c2ccc(O)cc2)oc2cc(O)cc(O)c12` [kaempferol] the “hydroxylation of substrate” value was “hydroxyl group is attached to kaempferol at position 8”.
In the case of `O=c1cc(-c2ccc(O)c(O)c2)oc2cc(O)cc(O)c12` [luteolin], the “hydroxylation of substrate” value is reported as “hydroxyl group is attached to luteolin”.
With `O=C1C[C@@H](c2ccc(O)cc2)Oc2cc(O)cc(O)c21` [naringenin] the “hydroxylation of substrate” value was “two hydroxyl groups were attached”.
With `O=c1c(O)c(-c2ccc(O)c(O)c2)oc2cc(O)cc(O)c12` [quercetin] the “hydroxylation of substrate” value was “substituted with hydroxyl group at position 8 and converted into gossypetin”.

System: nuclear factor-κB (NF-κB)
Experiment: not given
Conditions: leading to cell apoptosis potentiation; cited from earlier work
For `O=c1c(O)c(-c2ccc(O)c(O)c2)oc2c(O[C@@H]3O[C@H](CO)[C@@H](O)[C@H](O)[C@H]3O)c(O)cc(O)c12` [gossypin, gossypetin-8-glucoside], the “effect on activation of NF-κB” value is given as “inhibits the activation of nuclear factor-κB (NF-κB)”.

System: low density lipoprotein receptor (LDLR)
Experiment: not given
Conditions: through activation of extracellular signal-regulated kinase (ERK); cited from earlier work
In the case of `O=c1c(O)c(-c2ccc(O)c(O)c2)oc2c(O[C@@H]3O[C@H](CO)[C@@H](O)[C@H](O)[C@H]3O)c(O)cc(O)c12` [gossypin, gossypetin-8-glucoside], the “effect on LDLR” value is given as “upregulates low density lipoprotein receptor (LDLR)”.
